# Measurements: publication PMC3544137, “Isolation identification and biochemical characterization of a novel halo-tolerant lipase from the metagenome of the marine sponge Haliclona simulans” (Microbial Cell Factories, 2012)
# Target: T1, Lpc53E1 (uncultured bacterium, UniProt I4AY78)
# T1 construct: primer-encoded N-terminus MKSRLNDI
# Experiment: p-nitrophenol release at […] nm, Lineweaver-Burk
# Assay type: biochemical
# Conditions: pH 7, 40 °C; unit printed as mM^-1 (presumably mM); unit of the source corrected
# T1 sequence (I4AY78 1-387 limits assumed): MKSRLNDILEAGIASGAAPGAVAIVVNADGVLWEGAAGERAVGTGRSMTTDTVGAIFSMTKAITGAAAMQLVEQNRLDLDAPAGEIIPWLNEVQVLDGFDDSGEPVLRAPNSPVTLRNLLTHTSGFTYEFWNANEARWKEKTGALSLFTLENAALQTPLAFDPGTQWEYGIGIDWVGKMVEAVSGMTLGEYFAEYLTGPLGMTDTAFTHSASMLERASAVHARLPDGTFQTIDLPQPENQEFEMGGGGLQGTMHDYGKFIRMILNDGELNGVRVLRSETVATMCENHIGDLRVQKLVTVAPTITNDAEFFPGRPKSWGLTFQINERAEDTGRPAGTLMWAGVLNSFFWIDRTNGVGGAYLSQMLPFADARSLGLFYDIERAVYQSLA
compound,measurement,value
"CCCCCCCCCCCCCCCC(=O)Oc1ccc([N+](=O)[O-])cc1 [pNPP, p-nitrophenyl palmitate]",KM,1.09 mM
